Results taken from ChEMBL document CHEMBL5113372, “Paradigm shift of "classical" HDAC inhibitors to "hybrid" HDAC inhibitors in therapeutic interventions” (Eur J Med Chem, 2021).
pIC50: −log10 of the molar value.

Tests used:
[1] = molecular target: T1, Protein deacetylase HDAC6 (Homo sapiens, UniProt Q9UBN7); test: Inhibition of HDAC6 (unknown origin)
T1 sequence (Q9UBN7 whole entry): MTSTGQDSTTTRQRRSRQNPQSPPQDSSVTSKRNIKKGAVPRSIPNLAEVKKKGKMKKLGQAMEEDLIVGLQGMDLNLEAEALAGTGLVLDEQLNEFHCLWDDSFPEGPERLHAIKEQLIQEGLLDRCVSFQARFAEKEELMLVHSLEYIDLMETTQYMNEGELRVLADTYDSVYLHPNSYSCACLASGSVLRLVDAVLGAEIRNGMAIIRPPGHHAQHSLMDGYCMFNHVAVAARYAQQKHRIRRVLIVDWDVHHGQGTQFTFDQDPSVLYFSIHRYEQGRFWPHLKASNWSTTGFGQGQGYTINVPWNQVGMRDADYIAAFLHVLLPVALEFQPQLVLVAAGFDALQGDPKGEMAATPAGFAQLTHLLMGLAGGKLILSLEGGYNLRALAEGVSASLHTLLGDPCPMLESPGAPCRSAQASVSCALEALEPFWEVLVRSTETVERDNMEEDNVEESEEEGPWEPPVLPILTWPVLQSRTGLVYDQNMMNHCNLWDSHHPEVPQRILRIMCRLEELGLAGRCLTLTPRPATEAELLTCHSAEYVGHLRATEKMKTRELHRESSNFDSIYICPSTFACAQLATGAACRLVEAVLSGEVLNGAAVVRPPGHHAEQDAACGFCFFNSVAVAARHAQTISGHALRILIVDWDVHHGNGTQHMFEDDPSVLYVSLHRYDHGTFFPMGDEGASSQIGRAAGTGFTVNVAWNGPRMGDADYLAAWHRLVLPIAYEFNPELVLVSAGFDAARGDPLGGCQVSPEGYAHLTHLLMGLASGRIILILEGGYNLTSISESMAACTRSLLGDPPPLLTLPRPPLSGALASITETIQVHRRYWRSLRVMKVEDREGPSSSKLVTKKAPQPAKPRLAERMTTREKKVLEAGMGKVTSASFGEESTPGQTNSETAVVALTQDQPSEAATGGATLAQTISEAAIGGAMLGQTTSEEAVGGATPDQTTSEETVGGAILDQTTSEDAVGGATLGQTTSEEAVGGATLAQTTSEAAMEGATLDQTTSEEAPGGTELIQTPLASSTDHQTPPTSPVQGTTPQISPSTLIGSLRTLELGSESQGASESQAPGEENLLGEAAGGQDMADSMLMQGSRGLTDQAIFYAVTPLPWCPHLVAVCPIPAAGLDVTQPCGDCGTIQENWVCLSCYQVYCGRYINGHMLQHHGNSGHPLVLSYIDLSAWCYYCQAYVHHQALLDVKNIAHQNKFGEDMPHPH

Histone deacetylase 1 [2] = molecular target: T2, Histone deacetylase 1 (Homo sapiens, UniProt Q13547); test: Inhibition of recombinant human HDAC1 using Boc-L-Lys (Ac)-AMC as substrate incubated for 35 mins by microplate reader analysis
Histone deacetylase 1 [3] = molecular target: T2, Histone deacetylase 1; test: Inhibition of recombinant human HDAC1 using fluorogenic substrate measured after 60 mins by fluorescence based assay
Jurkat = test: Cytotoxicity against human Jurkat cells assessed as cell growth inhibition by trypan blue dye based light microscopy; format: functional
MCF7 [4] = test: Cytotoxicity against human MCF7 cells assessed as cell growth inhibition by trypan blue dye based light microscopy; format: functional
BT-474 = test: Cytotoxicity against human BT-474 cells assessed as cell growth inhibition; format: functional, cell-based
A549 [5] = test: Cytotoxicity against human A549 cells assessed as cell growth inhibition; format: functional, cell-based
Histone deacetylase 1 [6] = molecular target: T2, Histone deacetylase 1; test: Inhibition of HDAC1 (unknown origin)
[7] = molecular target: Epidermal growth factor receptor (Homo sapiens, UniProt P00533); test: Inhibition of EGFR (unknown origin)
NCI-H1975 = test: Cytotoxicity against human NCI-H1975 cells assessed as cell growth inhibition; format: functional, cell-based
A-431 = test: Cytotoxicity against human A-431 cells assessed as cell growth inhibition; format: functional, cell-based
SK-BR-3 = test: Cytotoxicity against human SK-BR-3 cells assessed as cell growth inhibition; format: functional, cell-based
LNCaP = test: Antiproliferative activity against human LNCaP cells expressing androgen receptor assessed as inhibition of cell viability; format: functional, cell-based
Androgen receptor = Androgen receptor (Rattus norvegicus, UniProt P15207); test: Displacement of [3H]-mibolerone from rat androgen receptor incubated for 4 hrs by radioligand binding assay
DU-145 = test: Antiproliferative activity against human DU-145 assessed as inhibition of cell viability incubated for 72 hrs by MTT/MTS assay; format: functional, cell-based; conditions: DU-145, 72 h
Histone deacetylase 1 [8] = molecular target: T2, Histone deacetylase 1; test: Inhibition of recombinant human HDAC1 using HDAC substrate incubated for 30 mins by fluorescence based microplate reader analysis
HepG2 = test: Antiproliferative activity against human HepG2 cells assessed as cell growth inhibition incubated for 72 hrs by CCK-8 assay; format: functional, cell-based; conditions: HepG2, 72 h
MCF7 [9] = test: Antiproliferative activity against human MCF7 cells assessed as cell growth inhibition incubated for 72 hrs by CCK-8 assay; format: functional, cell-based; conditions: MCF7, 72 h
HeLa = test: Antiproliferative activity against human HeLa cells assessed as cell growth inhibition incubated for 72 hrs by CCK-8 assay; format: functional, cell-based
Histone deacetylase 2 = Histone deacetylase 2 (Homo sapiens, UniProt Q92769); test: Inhibition of recombinant human HDAC2 using HDAC substrate incubated for 30 mins by fluorescence based microplate reader analysis
PC-3 = test: Antiproliferative activity against human PC-3 cells assessed as cell growth inhibition incubated for 72 hrs by CCK-8 assay; format: functional, cell-based; conditions: PC-3, 72 h
[10] = molecular target: T1, Protein deacetylase HDAC6; test: Inhibition of recombinant human HDAC6 using HDAC substrate incubated for 30 mins by fluorescence based microplate reader analysis
A549 [11] = test: Antiproliferative activity against human A549 cells assessed as cell growth inhibition incubated for 72 hrs by CCK-8 assay; format: functional, cell-based; conditions: A549, 72 h
A549 [12] = test: Antitumor activity against human A549 cells xenografted in BALB/c mouse assessed as tumor growth inhibition measured every 2 days for 2 to 3 weeks by caliper method relative to control; format: functional; conditions: time 2 day
A549 [13] = test: Antiproliferative activity against human A549 cells assessed as inhibition of cell viability treated for 12 to 48 hrs by MTT assay; format: functional, cell-based
[14] = molecular target: T1, Protein deacetylase HDAC6; test: Inhibition of recombinant human HDAC6 expressed in baculovirus infected Hi-5 insect cells using Boc-Lys (epsilon-acetyl)-AMC as substrate incubated for 3 to 24 hrs by fluorescence based assay
Histone deacetylase 1 [15] = molecular target: T2, Histone deacetylase 1; test: Inhibition of recombinant human HDAC1 using Boc-Lys (Ac)-AMC as substrate incubated for 60 mins by fluorescence based assay
SMMC-7721 = test: cells; format: functional, cell-based; conditions: Homo sapiens, SMMC-7721, 48 h
Histone deacetylase 1 [16] = molecular target: T2, Histone deacetylase 1; test: Inhibition of HDAC1 (unknown origin) using Boc-Lys(Ac)-7-amino-4-methylcoumarin (BocLys(Ac)-AMC) as substrate incubated for 30 mins by fluorescence based assay
[17] = molecular target: T1, Protein deacetylase HDAC6; test: Inhibition of HDAC6 (unknown origin) using Boc-Lys(Ac)-7-amino-4-methylcoumarin (BocLys(Ac)-AMC) as substrate incubated for 30 mins by fluorescence based assay
Histone deacetylase 1 [18] = molecular target: T2, Histone deacetylase 1; test: Inhibition of HDAC1 (unknown origin) using RHKK(Ac) as substrate incubated for 30 mins by fluorescence based assay
[19] = molecular target: Lysine-specific histone demethylase 1A (Homo sapiens, UniProt O60341); test: Inhibition of LSD1 (unknown origin) using diMeK4H31-21 as substrate preincubated for 5 mins followed by substrate addition measured for 5 mins by absorbance based assay
[20] = Antiproliferative activity against human WM983B cells assessed as cell growth inhibition; format: functional, cell-based
SK-MEL-5 = test: Antitumor activity against human SK-MEL-5 cells xenografted in BALB/c mouse assessed as reduction in tumor volume at 30 mg/kg, ip qd measured after 4 weeks by caliper method relative to control; format: functional; set-up: scale not given: the % may be the effect or the level left
Vitamin D3 receptor = Vitamin D3 receptor (Homo sapiens, UniProt P11473); test: Displacement of fluorescent tracer from VDR (unknown origin) by fluorescence polarisation competition assay
Chain of Vitamin D3 receptor (P11473 whole entry): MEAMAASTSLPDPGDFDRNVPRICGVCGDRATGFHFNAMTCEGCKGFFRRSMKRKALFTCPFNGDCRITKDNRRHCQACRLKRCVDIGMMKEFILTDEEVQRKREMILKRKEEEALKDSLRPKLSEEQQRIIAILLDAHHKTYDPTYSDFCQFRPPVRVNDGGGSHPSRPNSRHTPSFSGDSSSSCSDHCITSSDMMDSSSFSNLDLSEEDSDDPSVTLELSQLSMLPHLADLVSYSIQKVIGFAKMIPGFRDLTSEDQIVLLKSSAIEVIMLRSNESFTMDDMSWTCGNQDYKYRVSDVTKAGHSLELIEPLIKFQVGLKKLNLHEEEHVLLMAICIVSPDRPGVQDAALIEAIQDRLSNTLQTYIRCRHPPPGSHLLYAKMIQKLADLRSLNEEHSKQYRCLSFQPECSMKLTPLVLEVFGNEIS

T2 sequence (Q13547 whole entry): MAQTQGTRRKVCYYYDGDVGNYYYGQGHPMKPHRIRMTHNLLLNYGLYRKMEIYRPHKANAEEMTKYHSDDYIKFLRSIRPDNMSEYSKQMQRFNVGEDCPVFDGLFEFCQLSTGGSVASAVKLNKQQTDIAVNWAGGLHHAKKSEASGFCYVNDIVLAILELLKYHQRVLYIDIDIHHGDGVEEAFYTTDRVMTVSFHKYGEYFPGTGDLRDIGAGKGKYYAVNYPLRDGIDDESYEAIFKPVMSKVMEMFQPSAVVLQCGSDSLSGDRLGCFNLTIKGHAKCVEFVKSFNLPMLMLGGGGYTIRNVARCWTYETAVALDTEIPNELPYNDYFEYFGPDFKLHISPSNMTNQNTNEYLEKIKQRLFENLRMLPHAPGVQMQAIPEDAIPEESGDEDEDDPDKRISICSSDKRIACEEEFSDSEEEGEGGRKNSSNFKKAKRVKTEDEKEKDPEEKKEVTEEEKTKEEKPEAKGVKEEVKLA
Chain of Histone deacetylase 2 (Q92769 whole entry): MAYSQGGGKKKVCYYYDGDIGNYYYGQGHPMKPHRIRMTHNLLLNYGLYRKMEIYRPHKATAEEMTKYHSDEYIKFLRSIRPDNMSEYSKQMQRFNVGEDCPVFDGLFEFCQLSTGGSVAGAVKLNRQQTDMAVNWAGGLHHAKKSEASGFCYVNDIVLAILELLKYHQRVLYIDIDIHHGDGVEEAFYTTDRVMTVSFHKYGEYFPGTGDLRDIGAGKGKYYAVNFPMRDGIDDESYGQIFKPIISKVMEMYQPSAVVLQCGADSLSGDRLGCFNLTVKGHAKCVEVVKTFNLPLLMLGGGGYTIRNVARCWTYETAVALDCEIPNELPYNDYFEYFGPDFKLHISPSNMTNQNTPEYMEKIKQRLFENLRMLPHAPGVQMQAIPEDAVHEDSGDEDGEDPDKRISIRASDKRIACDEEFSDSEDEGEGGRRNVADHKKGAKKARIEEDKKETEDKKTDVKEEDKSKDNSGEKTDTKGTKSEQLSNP
Chain of Epidermal growth factor receptor (P00533 whole entry): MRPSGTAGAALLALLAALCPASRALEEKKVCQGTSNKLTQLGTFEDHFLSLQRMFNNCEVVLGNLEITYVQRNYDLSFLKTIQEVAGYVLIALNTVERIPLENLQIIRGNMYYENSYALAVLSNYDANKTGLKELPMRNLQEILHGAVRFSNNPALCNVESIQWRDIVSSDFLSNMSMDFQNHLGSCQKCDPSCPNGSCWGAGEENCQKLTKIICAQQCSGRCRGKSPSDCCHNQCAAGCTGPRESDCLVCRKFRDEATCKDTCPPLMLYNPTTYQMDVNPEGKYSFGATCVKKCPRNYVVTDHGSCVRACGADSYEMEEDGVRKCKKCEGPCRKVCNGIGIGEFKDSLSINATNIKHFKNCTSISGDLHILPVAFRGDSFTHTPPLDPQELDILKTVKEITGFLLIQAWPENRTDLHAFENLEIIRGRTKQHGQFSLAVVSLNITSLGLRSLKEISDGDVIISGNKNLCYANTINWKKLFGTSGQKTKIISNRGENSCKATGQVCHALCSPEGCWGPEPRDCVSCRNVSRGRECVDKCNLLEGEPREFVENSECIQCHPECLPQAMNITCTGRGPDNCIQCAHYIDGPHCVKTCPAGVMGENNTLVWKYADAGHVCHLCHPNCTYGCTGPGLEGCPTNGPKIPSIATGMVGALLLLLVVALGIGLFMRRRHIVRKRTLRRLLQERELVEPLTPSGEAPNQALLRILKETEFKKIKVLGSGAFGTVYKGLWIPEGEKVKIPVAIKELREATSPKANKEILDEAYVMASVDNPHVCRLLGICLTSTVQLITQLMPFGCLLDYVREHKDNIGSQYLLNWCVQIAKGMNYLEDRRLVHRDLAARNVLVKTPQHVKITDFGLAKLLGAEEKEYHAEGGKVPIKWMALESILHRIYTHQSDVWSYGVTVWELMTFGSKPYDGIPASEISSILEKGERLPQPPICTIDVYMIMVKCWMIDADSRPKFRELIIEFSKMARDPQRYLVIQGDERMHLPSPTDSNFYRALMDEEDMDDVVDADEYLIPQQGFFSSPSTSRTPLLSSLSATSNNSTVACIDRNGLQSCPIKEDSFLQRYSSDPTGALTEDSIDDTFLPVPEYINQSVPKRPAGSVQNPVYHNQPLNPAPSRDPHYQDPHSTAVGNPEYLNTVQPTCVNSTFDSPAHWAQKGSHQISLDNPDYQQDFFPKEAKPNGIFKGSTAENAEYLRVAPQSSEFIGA
Chain of Androgen receptor (P15207 whole entry S389L): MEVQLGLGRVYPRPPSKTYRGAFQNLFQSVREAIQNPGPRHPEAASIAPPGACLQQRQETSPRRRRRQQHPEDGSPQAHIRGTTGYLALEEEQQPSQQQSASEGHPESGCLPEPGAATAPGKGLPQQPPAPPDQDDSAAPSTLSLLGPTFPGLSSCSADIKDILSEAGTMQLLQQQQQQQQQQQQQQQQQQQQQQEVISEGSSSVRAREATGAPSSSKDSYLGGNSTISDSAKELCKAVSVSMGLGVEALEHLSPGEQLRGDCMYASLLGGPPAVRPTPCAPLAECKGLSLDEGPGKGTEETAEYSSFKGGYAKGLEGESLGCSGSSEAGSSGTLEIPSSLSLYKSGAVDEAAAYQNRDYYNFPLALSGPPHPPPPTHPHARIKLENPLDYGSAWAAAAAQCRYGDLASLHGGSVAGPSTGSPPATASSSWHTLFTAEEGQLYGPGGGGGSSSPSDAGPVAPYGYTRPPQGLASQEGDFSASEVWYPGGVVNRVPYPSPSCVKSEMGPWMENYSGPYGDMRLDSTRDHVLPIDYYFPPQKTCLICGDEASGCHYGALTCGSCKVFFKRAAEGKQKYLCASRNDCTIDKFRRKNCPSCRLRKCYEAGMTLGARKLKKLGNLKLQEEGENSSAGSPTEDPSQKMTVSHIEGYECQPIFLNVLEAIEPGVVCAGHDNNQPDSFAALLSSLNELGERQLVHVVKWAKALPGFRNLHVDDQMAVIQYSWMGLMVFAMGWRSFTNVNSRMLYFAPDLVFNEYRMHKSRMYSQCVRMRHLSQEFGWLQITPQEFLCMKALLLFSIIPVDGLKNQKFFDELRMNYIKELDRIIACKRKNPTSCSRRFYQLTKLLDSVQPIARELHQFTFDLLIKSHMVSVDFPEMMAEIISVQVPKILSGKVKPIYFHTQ

For `O=C(CCCCc1cn(-c2ccc(C(=O)c3c(-c4ccc(O)cc4)sc4cc(O)ccc34)cc2)nn1)NO`, the pIC50 [1] was 5.89 and the pIC50 (Histone deacetylase 1 [2]) was 5.74.

With `O=C(CCn1cc(CCn2nc3c(Br)c(Br)c(Br)c(Br)c3n2)nn1)NO` the pIC50 (Histone deacetylase 1 [3]) was 5.66, the pIC50 (Jurkat) was 5.54 and the pIC50 (MCF7 [4]) was 5.37.

Compound `O=C(CCCCCCN1CC(c2ccc3ncnc(Nc4ccc(Br)cc4F)c3c2)N=N1)NO` (stereo unspecified) has a pIC50 (BT-474) of 5.29, a pIC50 (A549 [5]) of 6.15 and a pIC50 [1] of 8.37. For the same compound, the pIC50 (Histone deacetylase 1 [6]) was 8.96, the pIC50 [7] was 7.99 and the pIC50 (NCI-H1975) was 5.11. For the same compound, the pIC50 (A-431) was 6.59 and the pIC50 (SK-BR-3) was 4.96.

In the case of `CC1(C)C(=O)N(c2ccc(C#N)c(C(F)(F)F)c2)C(=O)N1Cc1ccc(-c2cn(CCCCCCC(=O)NO)nn2)cc1`, the pIC50 (LNCaP) was 5.96, the pIC50 (Androgen receptor) was 6.16 and the pIC50 (DU-145) was 6.00.

For `C[C@H]1COc2c(N3CCN(C)CC3)c(F)cc3c(=O)c(C(=O)NCC4CN(CC(=O)NO)N=N4)cn1c23` (stereo partly specified), the pIC50 (Histone deacetylase 1 [8]) was 7.54, the pIC50 (HepG2) was 5.64 and the pIC50 (MCF7 [9]) was 6.52. It also gave a pIC50 (HeLa) of 5.96, a pIC50 (Histone deacetylase 2) of 7.39 and a pIC50 (PC-3) of 5.31. It also gave a pIC50 [10] of 7.68 and a pIC50 (A549 [11]) of 5.68.

`C=C(c1ccc(C(=O)NO)cc1)c1cc2c(cc1C)C(C)(C)CCC2(C)C` gave a TGI (A549 [12]) of 53% and a pIC50 (A549 [13]) of 5.31.

Compound `COCCOc1cc2ncnc(Nc3ccc(/C=C/C(=O)NO)cc3)c2cc1OCCOC` has a pIC50 [14] of 5.56.

Compound `CC(C)=CCC/C(C)=C/CC/C(C)=C/CSc1ccccc1C(=O)NCCCCC(=O)NO` has a pIC50 (Histone deacetylase 1 [15]) of 7.24 and a pIC50 (SMMC-7721) of 5.31.

In the case of `CCC(CC)(c1ccc(OCC(=O)NO)c(C)c1)c1ccc(OCC(O)C(C)(C)C)c(C)c1` (stereo unspecified), the pIC50 (Histone deacetylase 1 [16]) was 4.84 and the pIC50 [17] was 3.24.

For `Nc1ccccc1NC(=O)c1ccc(CCCC(=O)Nc2ccc(C3CC3N)cc2)cc1` (stereo unspecified), the pIC50 (Histone deacetylase 1 [18]) was 6.85, the pIC50 [19] was 7.00 and the pIC50 [20] was 6.70. The Activity (SK-MEL-5) was “<=61%”.

Work on `C=C1/C(=C\C=C2/CCC[C@@]3(C)[C@@H]2CC[C@H]3[C@@H](C)/C=C(C)/C=C/C(=O)NO)C[C@H](O)C[C@@H]1O` yielded a pIC50 (Vitamin D3 receptor) of 7.06.
